5 compounds from publication PMC10318897, “The structure of Leptospira interrogans GAPDH sheds light into an immunoevasion factor that can target the anaphylatoxin C5a of innate immunity” (Frontiers in Immunology, 2023) can be followed below.

The target of assay [1] is T1, LiGAPDH (Leptospira interrogans, UniProt Q72QM3).
T1 construct: gene gapA; full-length, N-terminal His6 tag and TEV site (pETM-11), expressed in E. coli Rosetta(DE3); homotetramer; 36648 Da subunit
In words: X-ray crystal structure, […] Å. It counts as binding. The note with it: active site, N-terminal Rossmann domain, all eight subunits.

The target in assay [2] is T1, LiGAPDH. In words: NADH formation at […] nm, initial rates, nonlinear fit. It counts as biochemical.
In assay [3] the target is T1, LiGAPDH. In words: NADH formation at […] nm, nonlinear fit. The note with it: substrate inhibition constant, 2 mM NAD+, 40 mM Tris-HCl pH 8.5, 2 mM EDTA, 25 °C. The class given is biochemical.

T1 sequence (Q72QM3 entry or part of it): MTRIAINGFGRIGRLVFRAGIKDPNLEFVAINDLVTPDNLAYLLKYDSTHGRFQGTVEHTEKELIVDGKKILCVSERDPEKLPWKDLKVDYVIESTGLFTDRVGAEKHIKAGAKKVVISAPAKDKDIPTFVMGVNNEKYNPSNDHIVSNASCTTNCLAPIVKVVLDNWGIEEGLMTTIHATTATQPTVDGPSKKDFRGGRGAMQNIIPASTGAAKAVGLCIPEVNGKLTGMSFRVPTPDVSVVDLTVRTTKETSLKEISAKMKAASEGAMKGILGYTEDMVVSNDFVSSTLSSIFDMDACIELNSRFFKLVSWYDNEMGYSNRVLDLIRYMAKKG

`NC(=O)c1ccc[n+]([C@@H]2O[C@H](COP(=O)(O)OP(=O)(O)OC[C@H]3O[C@@H](n4cnc5c(N)ncnc54)[C@H](O)[C@@H]3O)[C@@H](O)[C@H]2O)c1` [NAD^+]: the “X-ray crystal structure, 2.37 Å” value in assay [1] is on record as “The crystal structure corresponds to the holoenzyme with an NAD^+ molecule tightly bound into the active”.

What is called Ki is the equilibrium dissociation constant of an inhibitor or competing ligand from its target. A lower Ki goes with tighter binding. For the compound `CCCCCCCCCCCCCCCc1cccc(O)c1C(=O)O` [anacardic acid], the Ki in assay [2] is 41 ± 2 µM.

For the compound `O=P(O)(O)O` [Pi], the “KSS” value in assay [3] (2 mM G3P) came to 10 ± 1 mM.

As for `O=C[C@H](O)COP(=O)(O)O` [G3P], the “KSS” value in assay [3] (5 mM phosphate) was 2.0 ± 0.3 mM.

`COc1cc(/C=C/C(=O)CC(=O)/C=C/c2ccc(O)c(OC)c2)ccc1O` [curcumin] gave a Ki in assay [2] of 59 ± 3 µM.
